Tests used:
[1] = water solubility of dicycloplatin; type: physicochemical; conditions: room temperature
Text: (§1) Moreover, in additional polymorph studies of dicycloplatin, it was recognized that the use of shorter aliphatic alcohols (as reported in U.S. Pat. No. 6,699,901) such as methanol, ethanol, isopropanol and butanol led to a significant amount of carboplatin being left in the product because of disproportionation. […] Thus, recrystallization in water was not efficient and was difficult to scale up.

[2] = cited from earlier work
[3] = stability of dicycloplatin to heat / hot water (evaporation, slurry); type: physicochemical
Procedure: • 1) Dissolved 50.0 mg of carboplatin (135 μmol) in 2.8 mL of water in a 3-mL glass vial at RT. • 2) Added 19.4 mg of 1,1-cyclobutane dicarboxylic acid (135 μmol) into the same vial. • 3) Stirred the suspension at RT to obtain a clear solution. • 4) Transferred the clear solution to a 25-mL round-bottom flask and rotary evaporated at a temperature between 50° C. and 55° C. to obtain white crystal solid. • 5) Air-dried the solid to obtain a product.
as §1

dicycloplatin
water solubility [1]: 40 mg/mL
recommended Phase II dosage ([2]; DCP-containing chemotherapy): 450 mg/m^2
bioavailability and stability in vivo ([2]; in vivo, Chinese cancer patients): favorable
thermal stability during evaporation ([3]; evaporation step of the reported process (U.S. Pat. No. 6,699,901)): sensitive to high temperature
stability of a slurry in hot water ([3]; slurry in hot water): partial hydrolysis

— patent publication US9447130B1, “Process for the preparation of dicycloplatin” (Syn-Nat Products Enterprise LLC, priority 2015, dated 2016)
